Reference: patent US20060035927A1, “Calcilytic compounds” (SmithKline Beecham Corporation, priority 1999, published 2006)
Where a name gives a salt, the structure may show the parent alone.

Experiments:
[1] = test system: primary human osteoblasts; experiment: Osteoblast cAMP production, primary human osteoblasts; type: cell-based; settings: compound 0.1, 1 and 10 uM
Protocol: (§1) cAMP accumulation was measured in both human TF274 osteoblastic cells (derived by immortalization of human bone marrow stromal cells) see James, supra, and primary human osteoblasts derived from explants of trabecular bone as described in Beresford, Biochim. Biophys. Acta, Vol. 801, pp. 58-65 ([…]). cAMP levels in cell samples were measured using a non-radioactive protocol (Amersham kit). Alkaline phosphatase activity was determined using the standard colorimetric method as described previously in Gowen, Arth. Rheum., Vol. 31, pp. 1500-1507 (1988). N-[(2R-Hydroxy-3-[(3-chloro-2-cyano)phenoxy-propyl]-1,1-dimethyl-2-(2-naphthyl)ethyl amine hydrochloride was tested at 0.1, 1 and 10 uM. PTH 40 ng/ml was used as a positive control.

[2] = test system: osteopenic ovx rats; experiment: Ovariectomized rat Study 2: calcilytic plus/minus 17β estradiol, histology and histomorphometry of proximal tibia; type: in vivo; settings: Study 2, proximal tibia, static histomorphometry, vs ovx group
Protocol: Animals were prepared and monitored as described above. […] Dosing continued for 5 weeks at which point the animals were sacrificed and the tibiae were collected for histological analysis. Bone samples were dehydrated through increasing concentrations of ethanol, defatted in acetone and embedded in methyl methacrylate (Polysciences, Inc., Warrington, Pa.). Longitudinal undecalcified sections (5 μm) sections of the proximal tibial were cut on a Leica microtome (S[…]); the tissue blocks had been prestained with Villanueva stain. Histomorphometric analysis was carried out using an Osteomeasure system (OsteoMetrics Incorpotated), without knowledge of group allocation. Measurements within the tibial metaphysis were restricted to a mean tissue area of approximately 8 mm^2 beginning 1 mm below the growth plate. Primary measurements included area of bone and marrow (mm^2), bone area (mm^2), perimeter of bone (mm), single and double-labelled perimeter (sL.Pm, dL.Pm, m), osteoid perimeter (O.Pm, m) and eroded perimeter (Er.P, m). […] Statistical analysis was assessed by a two sided t-test.

[3] = biological target: T1, Ca^2+ receptor (Homo sapiens, UniProt P41180); experiment: Ca2+ receptor-mediated Ca2+ mobilization; type: cell-based
T1 sequence (P41180 20-1078): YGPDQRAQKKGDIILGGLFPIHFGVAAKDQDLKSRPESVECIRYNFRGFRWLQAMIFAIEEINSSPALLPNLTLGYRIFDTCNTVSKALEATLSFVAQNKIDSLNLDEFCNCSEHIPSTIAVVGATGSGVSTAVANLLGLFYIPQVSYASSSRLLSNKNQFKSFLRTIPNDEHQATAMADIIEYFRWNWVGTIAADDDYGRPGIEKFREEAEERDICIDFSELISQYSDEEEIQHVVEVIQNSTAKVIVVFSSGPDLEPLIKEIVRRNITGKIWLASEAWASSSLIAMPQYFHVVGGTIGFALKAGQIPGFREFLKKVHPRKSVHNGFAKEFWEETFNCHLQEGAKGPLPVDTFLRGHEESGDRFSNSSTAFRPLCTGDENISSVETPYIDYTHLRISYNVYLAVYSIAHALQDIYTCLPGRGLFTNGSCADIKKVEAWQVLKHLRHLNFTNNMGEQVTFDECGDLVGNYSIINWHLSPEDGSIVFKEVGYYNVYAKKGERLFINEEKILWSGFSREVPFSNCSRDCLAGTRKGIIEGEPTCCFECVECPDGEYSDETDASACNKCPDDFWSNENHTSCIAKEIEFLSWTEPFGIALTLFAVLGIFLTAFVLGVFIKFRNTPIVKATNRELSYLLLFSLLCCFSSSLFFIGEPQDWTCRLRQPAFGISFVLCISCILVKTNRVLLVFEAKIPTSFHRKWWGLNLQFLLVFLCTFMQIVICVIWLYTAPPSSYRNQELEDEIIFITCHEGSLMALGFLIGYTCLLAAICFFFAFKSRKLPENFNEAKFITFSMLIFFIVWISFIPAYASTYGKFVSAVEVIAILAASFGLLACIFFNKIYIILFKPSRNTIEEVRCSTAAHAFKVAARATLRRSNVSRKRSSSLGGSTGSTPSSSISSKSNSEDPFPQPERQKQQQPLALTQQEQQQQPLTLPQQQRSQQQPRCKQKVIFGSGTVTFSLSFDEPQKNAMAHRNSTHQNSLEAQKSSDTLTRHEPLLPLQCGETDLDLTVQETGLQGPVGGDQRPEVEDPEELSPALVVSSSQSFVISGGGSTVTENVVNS

[4] = test system: osteoblasts; experiment: Toxicity in vitro in osteoblast assays; type: cell-based, human; settings: 10 uM concentration
Protocol: as §1

[5] = test system: osteopenic ovx rats; experiment: Ovariectomized rat Study 1: dynamic histomorphometry of proximal tibia; type: in vivo
Source text: Seven month old virgin Sprague Dawley female rats were subjected to bilateral ovariectomy or sham surgery and the animals then held for a period of three months to allow the development of osteopenia. At that time a single sham group (n=10) and three groups of ovariectomized (ovx) animals (n=10-14) were assigned. The ovx groups were selected such that there was no significant difference in bone mineral density (“BMD”) of the lumbar spine, proximal tibia or distal femur between groups. Groups consisted of sham and ovx controls treated with dose vehicle (20% aqueous encapsin) and ovx groups treated with either N-[(2R-Hydroxy-3-[(3-chloro-2-cyano)phenoxy-propyl]-1,1-dimethyl-2-(2-naphthyl)ethyl amine hydrochloride (“calcilytic administered”) ([…] body weight daily p.o.) or rat PTH 1-34 (5 ug/kg body weight daily s.c.).
During the study blood samples were drawn for determination of circulating PTH and osteocalcin. BMD was determined by DXA (QDR4500 Hologic, Waltham, Mass.) prior to treatment and at weeks 4 and 8. At term tibiae were removed for histological analysis. All animals received tetracycline 10 and 3 days prior to the start of dosing and calcein (10 mg/kg) 10 and 3 days prior to sacrifice.
Bone samples were dehydrated through increasing concentrations of ethanol, defatted in acetone and embedded in methyl methacrylate (Polysciences, Inc., Warrington, Pa.). Longitudinal undecalcified sections (5 μm) sections of the proximal tibial were cut on a Leica microtome (SM2500S); the tissue blocks had been prestained with Villanueva stain. Histomorphometric analysis was carried out using an Osteomeasure system (OsteoMetrics Incorpotated), without knowledge of group allocation. Measurements within the tibial metaphysis were restricted to a mean tissue area of approximately 8 mm^2 beginning 1 mm below the growth plate. Primary measurements included area of bone and marrow (mm^2), bone area (mm^2), perimeter of bone (mm), single and double-labelled perimeter (sL.Pm, dL.Pm, m), osteoid perimeter (O.Pm, m) and eroded perimeter (Er.P, m). Derived indices included trabecular bone volume (% Tb.Ar), trabecular number (Th.N, mm^−1), trabecular thickness (Th.Th, μm), trabecular separation (Th.Sp, μm), bone formation rate, surface referent (BFR/Tb.Pm, μm^3/μm^2/year), BFR/Tb.Ar (bone area referent, %/year), BFR/B.Ar (tissue referent, %/year) and mineral apposition rate (MAR, μm/day), and percent labelled perimeter (% Lp). Statistical analysis was assessed by a two sided t-test.

[6] = Study 1, proximal tibia, vs ovx control, calcilytic 100 mmol/kg p.o. or PTH 5 ug/kg s.c. daily

Structure (SMILES): CC(C)(Cc1ccc2ccccc2c1)NC[C@@H](O)COc1cccc(Cl)c1C#N [N-[(2R-Hydroxy-3-[(3-chloro-2-cyano)phenoxy-propyl]-1,1-dimethyl-2-(2-naphthyl)ethylamine hydrochloride]
- PTH-induced cAMP levels ([1]; PTH 40 ng/ml): no effect
- cAMP levels (basal) ([1]; PTH 40 ng/ml positive control): no effect
- % trabecular area (% Tb.Ar.) / ovx-induced bone loss [2]: no effect
- fold by which fetal rat long bone IC50 exceeds IC50 for Ca^2+ receptor-mediated Ca^2+ mobilization [3]: approximately 300 fold
- toxicity in vitro [4]: some toxicity
- bone formation and resorption, net bone gain or loss ([5]; Study 1, overall outcome): dramatic increase in both bone formation and resorption, with no net bone gain or loss
- bone turnover, BFR/B.Ar. ([5]; Study 1, proximal tibia, compared with PTH and ovx control groups): dramatic increase
- bone resorption, % eroded perimeter ([5]; Study 1, proximal tibia, vs PTH or ovx control groups): significantly higher
- bone formation: % labeled perimeter (% L.Pm.) [5, 6]: elevated above the ovx control level
- bone formation: % osteoid perimeter (% Os.Pm) [5, 6]: elevated above the ovx control level
